In one series the test system is P388 murine leukemia. The series can be described thus: Antitumor activity against P388 murine leukemia in mice (survival time, T/C %). The format is in vivo. Here is the method:
Animals: mice were provided by Charles River Breeding Laboratories (Calco, Como, Italy); they were male mice of 6-8 weeks under standard housing conditions. Formulations: BBR 2778 dissolved and diluted in sterile water just before administration of 10 mg/kg to mice was used as reference. The liposome formulation of Example 4 was used. Tumor model: P388 murine leukemia, provided by NCI Frederick Cancer Facility (USA) is maintained through a series of intraperitoneal transplants in DBA2 mice. Mice were transplanted with 10^6 cells/mouse of P388 leukemia, the liposome compound and the reference standard were administered i.v. at days 1, 4, 7 after tumor transplant. The antitumor activity was determined as percent increase in the survival time of mice, expressed by the T/C % ratio of the mean survival time (TMS) of the treated group (T) to the mean survival time of the control group (C): […]

Another series concerns mice. The note with it: male, mouse, in vivo, iv, 40 mg/kg.
For another series, the system named is CD1 mice. In kind it is in vivo. The note with it: 40 or 60 mg/kg i.v. bolus.

Structures are written as SMILES. Marks after values point to notes of the source that are not given here.

As to `NCCNc1ccc(NCCN)c2c1C(=O)c1ccncc1C2=O.O=C(O)/C=C\C(=O)O` [BBR 2778 solution, 6,9-bis-[(2-aminoethyl)amino]benzo[g]isoquinoline-5,10-dione dimaleate], the T/C % is 199** % in the series on P388 murine leukemia (18 mg/kg/day i.v. at days 1, 4, 7 after tumor transplant); 226** % with P388 murine leukemia (27 mg/kg/day i.v. at days 1, 4, 7 after tumor transplant); 159** % in the series on P388 murine leukemia (40 mg/kg/day i.v. at days 1, 4, 7 after tumor transplant, dimaleate); 159% in the series on P388 murine leukemia (40 mg/kg/day i.v. at days 1, 4, 7 after tumor transplant, listed as BBR 2778 in solution, dimaleate); 36** % in the series on P388 murine leukemia (60 mg/kg/day i.v. at days 1, 4, 7 after tumor transplant). The “toxicity (percent toxic deaths)” value in the series on mice was 60.4%. Besides, in the series on CD1 mice, the “death during or immediately after treatment” value was “death of some animals is observed”.

For the origin of these results see patent publication US7449197B2, “Liposome formulation of 6,9-bis[(2-aminoethyl)-amino]benzo[g]isoquinoline-5, 10-dione dimaleate” (Cell Therapeutics Europe S.r.l., priority 1999, dated 2008).
